pIC50: −log10 of the molar value. The source made the active and inactive calls. The calls are words filed in the database; no cut-off is given here.
Key:
[1] = Unbound fraction in guinea pig plasma at 3 mg/kg administered as iv infusion; assay type: ADME, organism-based, Cavia porcellus; details: in vivo
[2] = target: Sodium channel protein type 5 subunit alpha (Homo sapiens, UniProt Q14524); assay: Inhibition of Nav1.5 (unknown origin)
[3] = Clearance in Wistar Han rat at 1 mg/kg, iv or 2 mg/kg, po; details: in vivo
[4] = Half life in Wistar Han rat at 1 mg/kg, iv or 2 mg/kg, po; details: in vivo
[5] = target: T1, ATP-sensitive inward rectifier potassium channel 1 (Homo sapiens, UniProt P48048); assay: Inhibition of human ROMK expressed in CHO cells at -70 mV holding potential after 6 mins by whole cell patch clamp Qpatch method; assay type: cell-based
T1 sequence (P48048 whole entry): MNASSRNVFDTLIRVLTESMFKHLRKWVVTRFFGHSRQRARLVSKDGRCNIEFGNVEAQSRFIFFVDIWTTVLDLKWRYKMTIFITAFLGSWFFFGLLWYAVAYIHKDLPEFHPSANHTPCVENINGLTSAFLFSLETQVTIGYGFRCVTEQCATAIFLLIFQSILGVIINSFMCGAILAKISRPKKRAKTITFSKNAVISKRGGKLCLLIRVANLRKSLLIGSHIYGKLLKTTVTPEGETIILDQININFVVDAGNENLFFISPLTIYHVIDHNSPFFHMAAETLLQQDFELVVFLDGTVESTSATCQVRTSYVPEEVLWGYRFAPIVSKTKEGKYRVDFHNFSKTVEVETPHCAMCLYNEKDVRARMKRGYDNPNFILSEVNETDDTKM

[6] = target: Voltage-dependent L-type calcium channel subunit alpha-1C (Homo sapiens, UniProt Q13936); assay: Inhibition of Cav1.2 (unknown origin)
Cytochrome P450 3A4 [7] = target: T2, Cytochrome P450 3A4 (Homo sapiens, UniProt P08684); assay: Inhibition of CYP3A4 (unknown origin); assay type: ADME
T2 sequence (P08684 whole entry): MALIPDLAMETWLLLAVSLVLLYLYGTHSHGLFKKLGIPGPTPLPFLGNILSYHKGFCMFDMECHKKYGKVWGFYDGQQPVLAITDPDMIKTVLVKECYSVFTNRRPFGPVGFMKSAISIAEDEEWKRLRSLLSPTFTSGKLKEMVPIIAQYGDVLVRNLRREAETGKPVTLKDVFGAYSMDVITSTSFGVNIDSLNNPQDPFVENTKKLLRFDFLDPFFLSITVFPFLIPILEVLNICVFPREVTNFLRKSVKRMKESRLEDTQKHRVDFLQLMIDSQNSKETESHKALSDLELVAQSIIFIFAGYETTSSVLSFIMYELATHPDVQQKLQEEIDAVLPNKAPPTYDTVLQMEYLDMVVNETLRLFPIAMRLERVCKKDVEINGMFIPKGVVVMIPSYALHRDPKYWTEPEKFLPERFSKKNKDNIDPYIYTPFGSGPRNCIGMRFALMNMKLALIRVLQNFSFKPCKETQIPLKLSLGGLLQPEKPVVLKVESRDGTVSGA

Cytochrome P450 2C8 = target: T3, Cytochrome P450 2C8 (Homo sapiens, UniProt P10632); assay: Inhibition of CYP2C8 (unknown origin); assay type: ADME
T3 sequence (P10632 whole entry): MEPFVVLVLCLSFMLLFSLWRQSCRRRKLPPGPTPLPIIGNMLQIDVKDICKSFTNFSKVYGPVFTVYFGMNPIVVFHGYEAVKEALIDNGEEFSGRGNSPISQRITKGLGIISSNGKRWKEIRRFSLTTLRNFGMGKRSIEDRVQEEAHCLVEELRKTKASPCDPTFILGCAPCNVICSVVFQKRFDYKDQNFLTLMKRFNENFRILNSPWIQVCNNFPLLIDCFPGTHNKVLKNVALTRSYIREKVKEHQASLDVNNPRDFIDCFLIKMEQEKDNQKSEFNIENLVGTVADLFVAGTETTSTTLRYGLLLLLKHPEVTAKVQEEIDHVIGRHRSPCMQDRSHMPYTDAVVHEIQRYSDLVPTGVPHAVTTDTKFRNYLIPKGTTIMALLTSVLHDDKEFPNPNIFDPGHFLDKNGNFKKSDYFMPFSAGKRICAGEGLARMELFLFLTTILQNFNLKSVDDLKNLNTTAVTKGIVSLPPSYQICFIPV

[8] = target: T4, Nuclear receptor subfamily 1 group I member 2 (Homo sapiens, UniProt O75469); assay: Activity at PXR (unknown origin) assessed as CYP induction
T4 sequence (O75469 whole entry): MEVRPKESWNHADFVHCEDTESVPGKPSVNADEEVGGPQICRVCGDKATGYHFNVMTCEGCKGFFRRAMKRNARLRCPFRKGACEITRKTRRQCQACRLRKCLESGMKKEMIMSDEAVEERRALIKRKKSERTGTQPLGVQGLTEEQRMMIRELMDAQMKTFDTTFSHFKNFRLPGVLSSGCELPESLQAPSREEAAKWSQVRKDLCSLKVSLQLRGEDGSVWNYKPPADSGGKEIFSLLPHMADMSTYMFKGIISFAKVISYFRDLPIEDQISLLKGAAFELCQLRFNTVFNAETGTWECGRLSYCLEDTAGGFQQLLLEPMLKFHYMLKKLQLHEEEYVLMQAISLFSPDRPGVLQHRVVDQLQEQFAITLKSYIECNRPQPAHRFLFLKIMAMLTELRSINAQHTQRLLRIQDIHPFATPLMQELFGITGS

[9] = target: Sodium-dependent serotonin transporter (Homo sapiens, UniProt P31645); assay: Inhibition of human SERT
Sequence of Sodium-dependent serotonin transporter (P31645 whole entry): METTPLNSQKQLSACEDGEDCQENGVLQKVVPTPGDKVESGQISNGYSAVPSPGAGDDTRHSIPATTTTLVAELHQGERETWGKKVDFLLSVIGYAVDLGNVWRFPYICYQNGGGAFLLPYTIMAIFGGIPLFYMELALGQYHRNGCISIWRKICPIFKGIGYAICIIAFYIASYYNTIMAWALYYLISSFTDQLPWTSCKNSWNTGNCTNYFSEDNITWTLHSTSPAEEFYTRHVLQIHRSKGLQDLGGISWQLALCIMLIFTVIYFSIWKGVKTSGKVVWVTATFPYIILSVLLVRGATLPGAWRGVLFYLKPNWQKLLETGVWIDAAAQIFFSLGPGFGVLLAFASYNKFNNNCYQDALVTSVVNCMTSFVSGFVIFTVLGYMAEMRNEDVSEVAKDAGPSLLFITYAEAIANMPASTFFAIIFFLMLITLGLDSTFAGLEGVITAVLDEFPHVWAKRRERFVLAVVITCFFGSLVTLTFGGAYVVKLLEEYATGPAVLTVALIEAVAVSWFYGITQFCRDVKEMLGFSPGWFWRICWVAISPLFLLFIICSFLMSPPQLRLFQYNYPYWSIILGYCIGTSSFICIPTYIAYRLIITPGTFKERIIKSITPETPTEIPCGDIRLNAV

[10] = Fraction unbound in rat plasma; assay type: ADME, cell-free
[11] = Fraction unbound in dog plasma; assay type: ADME, cell-free, Canis lupus familiaris
[12] = target: T5, ATP-sensitive inward rectifier potassium channel 1 (Rattus norvegicus, UniProt P35560); assay: Inhibition of rat ROMK expressed in HEK293 cells after 30 mins by FLIPR based thallium flux assay; assay type: cell-based
T5 sequence (P35560 whole entry): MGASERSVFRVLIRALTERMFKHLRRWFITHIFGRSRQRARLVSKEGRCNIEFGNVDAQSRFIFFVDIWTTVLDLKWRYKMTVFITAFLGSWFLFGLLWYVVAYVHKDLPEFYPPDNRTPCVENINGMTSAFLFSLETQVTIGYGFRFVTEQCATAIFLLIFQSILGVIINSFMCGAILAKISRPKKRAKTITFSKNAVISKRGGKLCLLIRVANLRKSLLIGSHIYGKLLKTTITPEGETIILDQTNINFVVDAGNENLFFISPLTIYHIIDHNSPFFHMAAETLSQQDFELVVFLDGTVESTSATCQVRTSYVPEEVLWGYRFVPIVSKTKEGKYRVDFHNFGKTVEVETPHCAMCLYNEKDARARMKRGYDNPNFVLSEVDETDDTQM

Cavia porcellus [13] = assay: Cardiotoxicity in anesthetized cardiovascular guinea pig model assessed as prolongation of QTc interval at 3 mg/kg administered as iv infusion relative to control; assay type: toxicity, organism-based; details: in vivo
Cavia porcellus [14] = assay: Cardiotoxicity in anesthetized cardiovascular guinea pig model assessed as prolongation of QTc interval at 10 mg/kg administered as iv infusion relative to control; assay type: toxicity, organism-based; details: in vivo
Cavia porcellus [15] = assay: Cardiotoxicity in anesthetized cardiovascular guinea pig model assessed as prolongation of QTc interval administered as iv infusion; assay type: toxicity, organism-based; details: in vivo
[16] = Unbound fraction in guinea pig plasma at 7 mg/kg administered as iv infusion; assay type: ADME, organism-based, Cavia porcellus; details: in vivo
Homo sapiens = species: Homo sapiens; assay: Unbound Cmax in human; assay type: ADME
Rattus norvegicus [17] = assay: Antihypertensive activity in rat spontaneous hypertensive model assessed as induction of natriuresis at 3 mg/kg, po qd measured after 3 days; assay type: functional, organism-based
[18] = Clearance in Beagle dog at 1 mg/kg, iv; assay type: ADME, organism-based, Canis lupus familiaris; details: in vivo
[19] = Volume of distribution at steady state in Beagle dog at 1 mg/kg, iv; assay type: ADME, organism-based, Canis lupus familiaris; details: in vivo, read-out: Vdss
[20] = Half life in Beagle dog at 1 mg/kg, iv; assay type: ADME, organism-based, Canis lupus familiaris; details: in vivo
Cytochrome P450 3A4 [21] = target: T2, Cytochrome P450 3A4; assay: Time dependent inhibition of CYP3A4 (unknown origin) in absence of NADPH; assay type: ADME
Rattus norvegicus [22] = assay: Antihypertensive activity in rat spontaneous hypertensive model assessed as induction of diuresis at 3 mg/kg, po qd measured after 3 days; assay type: functional, organism-based
Rattus norvegicus [23] = species: Rattus norvegicus; details: in vivo, po, 2 mg/kg
in vivo = details: Wistar Han, rat, po, 2 mg/kg

Sequence of Sodium channel protein type 5 subunit alpha (Q14524 whole entry): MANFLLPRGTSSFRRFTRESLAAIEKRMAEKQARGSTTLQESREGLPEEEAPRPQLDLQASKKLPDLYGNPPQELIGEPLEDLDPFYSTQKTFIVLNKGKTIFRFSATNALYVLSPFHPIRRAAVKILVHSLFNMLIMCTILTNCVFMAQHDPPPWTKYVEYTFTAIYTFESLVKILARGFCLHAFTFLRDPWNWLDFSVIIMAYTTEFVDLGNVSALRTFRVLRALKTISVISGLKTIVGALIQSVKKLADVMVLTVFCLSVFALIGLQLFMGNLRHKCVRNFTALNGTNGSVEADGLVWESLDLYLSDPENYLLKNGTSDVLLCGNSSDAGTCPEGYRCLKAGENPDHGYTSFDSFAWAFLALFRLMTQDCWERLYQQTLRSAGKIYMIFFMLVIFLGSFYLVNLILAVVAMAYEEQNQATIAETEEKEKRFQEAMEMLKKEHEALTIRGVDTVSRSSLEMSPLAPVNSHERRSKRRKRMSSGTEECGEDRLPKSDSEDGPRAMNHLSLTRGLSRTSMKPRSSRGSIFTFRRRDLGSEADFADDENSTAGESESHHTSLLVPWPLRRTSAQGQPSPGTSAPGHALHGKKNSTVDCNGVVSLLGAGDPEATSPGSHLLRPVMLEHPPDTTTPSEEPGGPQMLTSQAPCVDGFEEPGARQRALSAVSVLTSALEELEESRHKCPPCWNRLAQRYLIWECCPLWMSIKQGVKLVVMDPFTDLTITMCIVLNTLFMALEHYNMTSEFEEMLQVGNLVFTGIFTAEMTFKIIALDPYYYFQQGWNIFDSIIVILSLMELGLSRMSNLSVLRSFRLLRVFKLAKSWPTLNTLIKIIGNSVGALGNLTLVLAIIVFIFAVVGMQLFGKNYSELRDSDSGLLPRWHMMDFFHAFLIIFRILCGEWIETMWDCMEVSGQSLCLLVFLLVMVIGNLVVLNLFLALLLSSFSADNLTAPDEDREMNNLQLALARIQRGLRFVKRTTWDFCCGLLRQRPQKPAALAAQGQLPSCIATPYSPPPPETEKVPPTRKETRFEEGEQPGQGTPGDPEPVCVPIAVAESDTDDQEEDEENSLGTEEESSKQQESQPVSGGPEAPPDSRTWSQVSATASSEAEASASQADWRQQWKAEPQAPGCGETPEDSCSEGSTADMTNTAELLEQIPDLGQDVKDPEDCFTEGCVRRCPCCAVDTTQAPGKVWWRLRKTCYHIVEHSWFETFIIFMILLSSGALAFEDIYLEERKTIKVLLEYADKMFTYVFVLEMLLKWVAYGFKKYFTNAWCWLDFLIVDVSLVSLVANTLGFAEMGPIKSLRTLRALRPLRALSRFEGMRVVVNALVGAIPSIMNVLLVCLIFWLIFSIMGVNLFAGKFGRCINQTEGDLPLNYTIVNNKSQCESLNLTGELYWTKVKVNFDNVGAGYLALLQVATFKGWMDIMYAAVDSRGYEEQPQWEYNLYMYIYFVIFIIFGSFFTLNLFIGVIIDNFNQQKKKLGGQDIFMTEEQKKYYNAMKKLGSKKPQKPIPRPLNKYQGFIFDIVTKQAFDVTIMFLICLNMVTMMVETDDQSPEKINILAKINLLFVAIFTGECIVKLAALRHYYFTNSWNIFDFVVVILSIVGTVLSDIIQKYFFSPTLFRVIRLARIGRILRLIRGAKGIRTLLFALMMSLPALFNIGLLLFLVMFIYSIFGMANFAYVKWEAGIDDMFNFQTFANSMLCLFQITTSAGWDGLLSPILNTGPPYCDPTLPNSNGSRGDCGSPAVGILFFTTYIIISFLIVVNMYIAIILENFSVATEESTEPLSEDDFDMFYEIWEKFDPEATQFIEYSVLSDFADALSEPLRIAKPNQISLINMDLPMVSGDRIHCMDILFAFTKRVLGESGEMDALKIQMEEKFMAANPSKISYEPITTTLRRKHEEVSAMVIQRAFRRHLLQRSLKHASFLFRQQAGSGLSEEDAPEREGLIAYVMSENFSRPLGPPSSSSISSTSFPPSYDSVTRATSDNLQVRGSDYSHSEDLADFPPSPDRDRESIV

For Cc1c([C@@H](O)CN2CCC3(CC2)CCN(c2ccc(=O)n(C)n2)C3=O)ccc2c1COC2=O, which “Cp(f)” value [1] is on record?
Its value is 5.3 µM.

What about the pIC50 [2] of the same compound?
Its pIC50 is < 4.52.

And the clearance [3]?
Its clearance is 25 mL/min/kg.

What about the half-life [4] of the same compound?
The half-life was 2.8 h.

What about the pIC50 [5] of the same compound?
Its pIC50 is 7.77.

What about the pIC50 [6] of the same compound?
Its pIC50 is < 4.52.

And the pIC50 (Cytochrome P450 3A4 [7])?
Its pIC50 is < 4.30.

And the pIC50 (Cytochrome P450 2C8)?
The pIC50 was < 4.30.

And the pIC50 [8]?
Its pIC50 is < 4.52.

And the pIC50 [9]?
Its pIC50 is 4.98.

What about the fraction unbound [10] of the same compound?
Its fraction unbound is 0.455.

And the fraction unbound [11]?
The fraction unbound was 0.405.

And the pIC50 [12]?
Its pIC50 is 7.42.

What about the Activity (Cavia porcellus [13]) of the same compound?
The Activity was 9%.

What about the Activity (Cavia porcellus [14]) of the same compound?
The Activity was 16%.

What about the Activity (Cavia porcellus [15]) of the same compound?
The Activity was “Dose-dependent effect”.

What about the “Cp(f)” value [16] of the same compound?
Its value is 13.5 µM.

And the fCmax (Homo sapiens)?
Its fCmax is 0.12 µM.

What about the Activity (Rattus norvegicus [17]) of the same compound?
The Activity was “Active”.

What about the clearance [18] of the same compound?
Its clearance is 18.3 mL/min/kg.

And the Vd [19]?
The Vd was 5 L/kg.

And the half-life [20]?
Its half-life is 5.8 h.

What about the pIC50 (Cytochrome P450 3A4 [21]) of the same compound?
Its pIC50 is < 4.30.

And the Activity (Rattus norvegicus [22])?
The Activity was “Active”.

What about the AUC/dose (Rattus norvegicus [23]) of the same compound?
Its AUC/dose is 1.2 µM·kg·h/mg.

What about the bioavailability (in vivo) of the same compound?
The bioavailability was 78%.
